Measurements from patent US9259467B2, “Mammalian receptors as targets for antibody and active vaccination therapy against mold infections” (Los Angeles Biomedical Research Institute at Harbor-UCLA …, priority 2009, dated 2016).

Experiments:
Assay type in all cases: cell-based, human
GRP78 transcript = assay: Quantification of GRP78 expression in endothelial cells by real time RT-PCR; conditions: for GRP78 expression: data not shown
Method: The transductions were performed according to the manufacturer's protocol. Briefly, 1.6×10^4 endothelial cells were seeded into 96-well plate and incubated for about 20 hours at 37° C. in a 5% CO2 incubator. Cells were infected with lentiviral particles at an MOI of 20 in the presence of 8 μg/ml polybrene (Sigma-Aldrich) overnight. The transduced cells were incubated in fresh M199 medium for 4 more days. Puromycin at 0.2 μg/ml was added to select for puromycin-resistant cell pools, which usually took approximately 10 days of incubating at 37° C. in 5% CO^2. The puromycin-resistant cells were passaged until an appropriate amount of cells was obtained for endocytosis or damage assays as above. Reduction of GRP78 expression was confirmed by using real time RT-PCR (see below).
For quantification of GRP78 expression in endothelial or CHO cells, real time RT-PCR was carried out using a Power SYBR Green Cells-to-CT kit (Applied Biosystems) to extract RNA from 2×10^4 cells. Primers to amplify GRP78 from endothelial cells and CHO cells were 5′-[…]-3′ (SEQ ID NO: 3) and 5′-[…]-3′ (SEQ ID NO: 4). Primers 5′-ACCATCTTCCAGGAGCGAG-3′ (SEQ ID NO: 5) and 5′-TAAGCAGTTGGTGGTGCAG-3′ (SEQ ID NO: 6) were used to amplify the housekeeping gene GAPDH, which was used as a control.
To study the effect of acidosis, endothelial cells exposed to different pHs, ranging from 6.8 to 7.4, were grown in MEM buffered with HEPES for 5 hours in the presence or absence of phenanthroline. Next, endothelial cells were washed twice with cold PBS, and GRP78 total expression was quantified by real-time RT-PCR. […] To study the effect of hyperosmolarity and statins on GRP78 expression, endothelial cells in MEM were incubated with 1, 4, or 8 mg/ml mannitol or 5, 20, or 40 μg/ml lovastatin for 20 hours. […] GRP78 expression, endocytosis, and damage assays were conducted as above.

[1] = system: R. oryzae germlings on endothelial cells; assay: Differential fluorescence assay of adherence and endocytosis of R. oryzae germlings by endothelial cells; conditions: for Reduction of endothelial cell endocytosis of R. oryzae: phenanthroline 60 μM for 16 hours, cytochalasin D 200 nM
Method: The number of organisms endocytosed by endothelial cells or CHO cells was determined using a modification of a previously described differential fluorescence assay (Ibrahim et al., Infect Immun. 63(11):4368-4374 (1995)). Briefly, 12-mm glass coverslips in a 24-well cell culture plate were coated with fibronectin for at least 4 hours and seeded with endothelial or CHO cells until confluency. After washing twice with prewarmed HBSS, the cells were then infected with 10^5 cells of R. oryzae in RPMI 1640 medium that had been germinated for 1 hour. Following incubation for 3 hours, the cells were fixed in 3% paraformaldehyde and were stained for 1 hour with 1% Uvitex (a gift from Jay Isharani, Ciba-Geigy, Greensboro, N.C., USA), which specifically binds to the chitin of the fungal cell wall. After washing 3 times with PBS, the coverslips were mounted on a glass slide with a drop of ProLong Gold antifade reagent and sealed with nail polish. The total number of cell-associated organisms (i.e., germlings adhering to monolayer) was determined by phase-contrast microscopy. The same field was examined by epifluorescence microscopy, and the number of uninternalized germlings (which were brightly fluorescent) was determined. The number of endocytosed organisms was calculated by subtracting the number of fluorescent organisms from the total number of visible organisms. At least 400 organisms were counted in 20-40 different fields on each slide. Two slides per arm were used for each experiment, and the experiment was performed in triplicate on different days. […]
To determine the effects of chelating endothelial cell iron on interactions with R. oryzae, endothelial cells were incubated with different concentrations of phenanthroline for 16 hours. To prevent chelation of the radioisotope, ^51Cr was added to endothelial cells 24 hours prior to the addition of phenanthroline (Fratti et al., Infect Immun. 66(1):191-196 (1998)). To confirm that the effects of phenanthroline on R. oryzae-induced endocytosis by and damage of endothelial cells were due to chelation of endothelial cell iron, exogenous iron in the form of hemin was added to endothelial cells at a final concentration of 20 μM, 2 hours before phenanthroline (Fratti et al., supra). As a positive control for prevention of endocytosis, the microfilament disruptant cytochalasin D (Sigma-Aldrich) was added at a concentration of 200 nM simultaneously with R. oryzae germlings, and endocytosis was determined as above (Ibrahim et al., Infect Immun. 63(11):4368-4374 (1995)). […]

[2] = system: R. oryzae germlings on endothelial cells; assay: 51Cr release assay of R. oryzae-induced endothelial cell damage
Method: R. oryzae-induced endothelial or CHO cell damage was quantified by using a chromium (^51Cr) release assay (Ibrahim et al., J Infect Dis. 198(7):1083-1090 (2008)). Briefly, endothelial cells or CHO cells grown in 96-well tissue culture plates containing detachable wells were incubated with 1 μCi per well of Na2^51CrO4 (ICN) in M-199 medium (for endothelial cells) or Alpha minimum Eagle's medium (for CHO cells) for 16 hours.
On the day of the experiment, the unincorporated ^51Cr was aspirated, and the wells were washed twice with warmed HBSS (Irvine Scientific). Cells were infected with fungal germlings (1.5×10^5 germinated for 1 hour) suspended in 150 μl RPMI 1640 medium (Irvine Scientific) supplemented with glutamine. Spontaneous ^51Cr release was determined by incubating endothelial or CHO cells in RPMI 1640 medium supplemented with glutamine without R. oryzae. […] The amount of ^51Cr in the aspirate and the detached well was determined by gamma counting. […] After the data were corrected for variations in the amount of tracer incorporated in each well, the percentage of specific endothelial cell release of ^51Cr was calculated by the following formula: [(experimental release×2)−(spontaneous release×2)]/[total incorporation−(spontaneous release×2)]. […]

GRP78 = assay: Cell surface expression of GRP78 on endothelial cells by FACS; conditions: high iron levels (0, 15, or 50 μM FeCl3 tested); flow cytometry
Method: Cell surface expression of GRP78 on endothelial cells exposed to varying concentrations of FeCl3 was quantified using FACS analysis. Briefly, endothelial cells grown in 25-cm flasks were dissociated using 1.5 ml enzyme-free dissociation buffer (Invitrogen). Cells were blocked with 50% goat serum, then stained with monoclonal anti-GRP78 Ab (BD Biosciences) at 1:100 for 1 hour. Endothelial cells were counterstained with ALEXA FLUOR 488-labeled anti-mouse IgG at 1:100 for 1 hour. Endothelial cells exposed to a similar concentration of FeCl3 or glucose and stained with an isotype matching control IgG (BD Biosciences) were used as negative control. A FACSCaliber (BD) instrument equipped with an argon laser emitting at 488 nm was used for flow cytometric analysis. Fluorescence data were collected with logarithmic amplifiers. The population percent fluorescence of 5×10^3 events was calculated using CellQuest software (BD).

[3] = 15 or 50 μM FeCl3, vs no exogenous FeCl3

With OC[C@@H](O)[C@@H](O)[C@H](O)[C@H](O)CO [mannitol] as the compound, how does the GRP78 expression (GRP78 transcript; mannitol 1, 4, and 8 mg/ml for 20 hours) read?
The GRP78 expression was “No change in GRP78 expression”.

For hemin [exogenous iron], which “Effect on the inhibition of endocytosis caused by the iron chelator phenanthroline” value ([1]; hemin 20 μM added 2 hours before phenanthroline) is on record?
The value was “completely reversed the inhibition of endocytosis”.

Which “Reduction of endothelial cell endocytosis of R. oryzae” value [1] does the source give for C=C1[C@@H](C)[C@H]2[C@H](Cc3ccccc3)NC(=O)[C@]23[C@H](OC(C)=O)/C=C/[C@@](C)(O)C(=O)[C@@H](C)C/C=C/[C@H]3[C@@H]1O [cytochalasin D] here?
The value was “approximately 70%”.

For c1cnc2c(c1)ccc1cccnc12 [phenanthroline], which “Endothelial cell GRP78 expression in the setting of acidosis” value (GRP78 transcript; pH 6.8 to 7.4, 5 hours, with phenanthroline) is on record?
Its value is “reversed GRP78 expression back to normal levels”.

What about the “Reduction of endothelial cell endocytosis of R. oryzae” value [1] of the same compound?
Its value is “approximately 70%”.

What about the “R. oryzae-induced endothelial cell damage” value ([2]; varying concentrations of phenanthroline for 16 h, removed before assay) of the same compound?
Its value is “prevented R. oryzae-induced endothelial cell damage in a concentration-dependent manner”.

For CC[C@H](C)C(=O)O[C@H]1C[C@@H](C)C=C2C=C[C@H](C)[C@H](CC[C@@H]3C[C@@H](O)CC(=O)O3)[C@H]21 [lovastatin], which GRP78 expression (GRP78 transcript; lovastatin 5, 20, or 40 μg/ml for 20 hours) is on record?
The GRP78 expression was “No evidence of alterations in expression”.

How did the “Increase in endothelial cell GRP78 expression” value (GRP78 transcript; FeCl3 at iron concentrations of DKA sera, 5 hours, vs no iron) turn out when [Cl][Fe]([Cl])[Cl] [FeCl3] was run?
The value was no more than 12 fold.

And the “Increase of surface expression of GRP78 protein” value (GRP78)?
Its value is 150%.

What about the “Enhancement of R. oryzae-induced endocytosis” value [1, 3] of the same compound?
The value was 80%.

What about the “Enhancement of R. oryzae-induced endothelial cell damage” value [2, 3] of the same compound?
The value was 80%.
